The values below come from US10085955B2, “Methods and compositions for treatment of demyelinating diseases” (Pathologica LLC, priority 2013, dated 2018).

Data set [1] has as its system MOG-induced experimental autoimmune encephalomyelitis (EAE). Nature of the data set: First MOG EAE protocol (murine multiple sclerosis model). It is filed as in vivo, C57BL/6 mice. An excerpt:
An experimental murine model of multiple sclerosis employing a myelin oligodendrocyte glycoprotein (MOG) peptide to induce experimental autoimmune encephalomyelitis (EAE) was employed to determine the efficacy of MGBG in preventing and treating that disease. Because of its many similarities to MS, EAE is commonly used to study pathogenesis of autoimmunity, CNS inflammation, demyelination, cell trafficking, and tolerance induction. EAE is characterized by paralysis (in some models the paralysis is remitting-relapsing), CNS inflammation and demyelination. EAE is mediated primarily by dendritic cells, myelin-specific T cells (e.g. Th1 and Th17), and M1 macrophages. B cells may also play a role in some models of EAE. Body weight also tracks disease progression. EAE is induced in C57BL/6 mice by immunization with MOG35-55 or MOG1-125 in CFA emulsion followed by administration of pertussis toxin (PTX) in PBS. The emulsion provides antigen which initiates expansion and differentiation of MOG-specific autoimmune T cells. PTX enhances EAE development by providing additional adjuvant and facilitating entrance of autoimmune T cells into the CNS.
Chronic EAE develops in C57BL/6 mice after immunization with an emulsion of MOG35-55/CFA or MOG1-125/CFA followed by injection of pertussis toxin. This model is used to test the potential of compounds to prevent or mitigate EAE disease. It can be run with the compound dosed from the time of immunization (prophylactic treatment), or with the aim of reversing the course of disease and facilitating recovery by dosing the compound from the time of EAE onset (therapeutic treatment). The model uses female C57BL/6 mice of age 10 to 14 weeks at the start of the study. Typically, EAE develops 8-18 days after immunization. EAE development is usually followed for 4 weeks (28 days) after immunization.
In prophylactic studies, treatment begins before disease onset, at the time of immunization and group assignment. Mice are assigned to treatment groups in a balanced manner to achieve groups with similar distributions of body weights. Prophylactic studies assess if treatment will affect the course of disease both before and after the first clinical signs of EAE. To compensate for the stress of treatment in prophylactic treatment studies and achieve the target disease severity, EAE may be induced with a higher dose of pertussis toxin than used in therapeutic studies. The dose of pertussis toxin is based on expected stress due to dosing (route, frequency, and formulation of vehicle).
Clinically, EAE progression is scored on a scale of 0 to 5, wherein each score represents the following clinical observations:
Inflammatory foci of approximately 20 cells were counted in each H&E stained section. When inflammatory infiltrates consisted of more than 20 cells, an estimate was made of how many foci of 20 cells were present.
The demyelination score represents an estimate of demyelinated area for each section as follows:
Unless otherwise noted, statistical analysis was performed as follows: disease incidence compared using chi-square test; mean day of EAE onset, change in body weight, and number of apoptotic cells compared using 2-tailed Student's t-test; median day of EAE onset compared using Wilcoxon's survival test; mean maximum score (MMS), end score, and demyelination scores (LFB and H&E) compared using Wilcoxon's non-parametric test.
Ten week old female C57BL/6 mice weighing 18-23 g (Taconic Farms) were divided into four groups: mock immunized (n=3) and three MOG-immunized groups receiving MGBG at 30 mpk BID (as the di-HCl monohydrate with a correction factor of 1.49), fingolimod (FTY720) at 3 mpk QD with a second mock vehicle dose, or 0.9% saline vehicle BID (n=12 each). […]

Data set [2] is described as follows: Multi-species allometric scaling, predicted human pharmacokinetic parameters. Also noted: species or system humans. The conditions noted are these: based on Mouse, Dog, Rhesus. The text has this:
Multi-species allometric scaling based on pharmacokinetic parameters disclosed in Tables 2 and 3 was employed to calculate predicted pharmacokinetic parameters in humans according to methods known in the art. See, e.g., Ings R M, “Interspecies scaling and comparisons in drug development and toxicokinetics,” Xenobiotica, 1990 November; 20(11):1201-31 and Khor, S P et al., “Dihydropyrimidine dehydrogenase inactivation and 5-fluorouracil pharmacokinetics: allometric scaling of animal data, pharmacokinetics and toxicodynamics of 5-fluorouracil in humans,” Cancer Chemother Pharmacol (1997) 39(3): 833-38. Expected values are given below in Tables 6 and 7.

Molecules are shown by their SMILES.

Take `CC(/C=N/NC(=N)N)=N\NC(=N)N` [MGBG, 1,1′ [methylethanediylidene]dinitrilodiguanidine]: in data set [1] (first 28-day study, MGBG 30 mpk BID, fingolimod 3 mpk QD, throughout/duration of experiment), the “mean clinical score (scale 0 to 5)” value is recorded as “below 1”. Further, the “body weight, mean percent of baseline (study start)” value in data set [1] (first study, day 11) is roughly 115%; in data set [1] (first study, day 24), “about 108%”. In addition, the “spinal cord histopathology (neuroinflammation, demyelination, apoptosis)” value in data set [1] (first study, day 28) is given as “reduces histopathological signs of MS”. Also, the “day first clinical signs became evident” value in data set [1] (first study, MGBG 30 mpk BID (vehicle day 10)) worked out at 15 days. The CL in data set [2] (IV) is given as 7.9 mL/min/kg; in data set [2] (IV, Rat), 7.7 mL/min/kg; in data set [2] (ORAL), 20.9 mL/min/kg; in data set [2] (ORAL, Rat), 21.0 mL/min/kg. Moreover, the VSS was 9.1 L/kg in data set [2] (IV); 9.0 L/kg in data set [2] (IV, Rat); 41.6 L/kg in data set [2] (ORAL); 42.4 L/kg in data set [2] (ORAL, Rat). Moreover, the t1/2 in data set [2] (IV) was 13.3 h; in data set [2] (IV, Rat) it was 13.4 h; in data set [2] (ORAL), 23.0 h; in data set [2] (ORAL, Rat), 23.3 h.
